Results published in ChEMBL document CHEMBL1201862, “PubChem BioAssay data set” (2004).
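Values below derive from 48-hour exposures of cells grown in 96-well plates, with endpoints linearly interpolated between the two concentrations bracketing the appropriate inhibition level. GI50 marks 50% less growth.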 Activity calls are given as the source filed them. Cut-off read from the data, not from the text of the source: active = GI50 up to about 1.1 µM and inactive = higher.

Columns and labels:
Assay in all cases: growth of human tumour cells (NCI), 48 h
786-0 = system: 786-0
MDA-MB-231 = system: MDA-MB-231
MDA-N = system: MDA-N
NCI-H226 = system: NCI-H226
HOP-62 = system: HOP-62
HOP-92 = system: HOP-92
U-251 = system: U-251
A498 = system: A498
MCF7 = system: MCF7
RXF 393 = system: RXF 393
OVCAR-8 = system: OVCAR-8
OVCAR-5 = system: OVCAR-5
UO-31 = system: UO-31
SK-MEL-2 = system: SK-MEL-2
PC-3 = system: PC-3
M14 = system: M14
SN12C = system: SN12C
SF-295 = system: SF-295
ACHN = system: ACHN
EKVX = system: EKVX
SK-MEL-28 = system: SK-MEL-28
LOX IMVI = system: LOX IMVI
Malme-3M = system: Malme-3M
MDA-MB-435 = system: MDA-MB-435
HCT-116 = system: HCT-116
Hs-578T = system: Hs-578T
SNB-75 = system: SNB-75
SK-OV-3 = system: SK-OV-3
KM12 = system: KM12
HT-29 = system: HT-29
SK-MEL-5 = system: SK-MEL-5
HL-60 = system: HL-60
SW-620 = system: SW-620
IGROV-1 = system: IGROV-1
CCRF-CEM = system: CCRF-CEM
NCI-H23 = system: NCI-H23
NCI/ADR-RES = system: NCI/ADR-RES
DU-145 = system: DU-145
UACC-257 = system: UACC-257
HCT-15 = system: HCT-15
SF-539 = system: SF-539
T47D = system: T47D
CAKI-1 = system: CAKI-1
SNB-19 = system: SNB-19
SF-268 = system: SF-268
A549 = system: A549
HCC 2998 = system: HCC 2998
OVCAR-4 = system: OVCAR-4
NCI-H522 = system: NCI-H522
TK-10 = system: TK-10
OVCAR-3 = system: OVCAR-3
COLO 205 = system: COLO 205
SR = system: SR
NCI-H460 = system: NCI-H460
RPMI-8226 = system: RPMI-8226
MOLT-4 = system: MOLT-4
K562 = system: K562
UACC-62 = system: UACC-62

With `CC(=O)NC(C)c1ccc(/N=N/N2CCCC2)cc1` (stereo not drawn) the GI50 (786-0) was > 100 µM (inactive), the GI50 (MDA-MB-231) was > 100 µM (inactive) and the GI50 (MDA-N) was > 100 µM (inactive). The GI50 (NCI-H226) was > 100 µM (inactive), the GI50 (HOP-62) was > 100 µM (inactive) and the GI50 (HOP-92) was > 100 µM (inactive). For the same compound, the GI50 (U-251) was > 100 µM (inactive), the GI50 (A498) was > 100 µM (inactive) and the GI50 (MCF7) was > 100 µM (inactive). The GI50 (RXF 393) was > 100 µM (inactive), the GI50 (OVCAR-8) was > 100 µM (inactive) and the GI50 (OVCAR-5) was > 100 µM (inactive). The GI50 (UO-31) was > 100 µM (inactive), the GI50 (SK-MEL-2) was > 100 µM (inactive) and the GI50 (PC-3) was > 100 µM (inactive). For the same compound, the GI50 (M14) was > 100 µM (inactive), the GI50 (SN12C) was > 100 µM (inactive) and the GI50 (SF-295) was > 100 µM (inactive). The GI50 (ACHN) was > 100 µM (inactive), the GI50 (EKVX) was > 100 µM (inactive) and the GI50 (SK-MEL-28) was > 100 µM (inactive). For the same compound, the GI50 (LOX IMVI) was > 100 µM (inactive), the GI50 (Malme-3M) was > 100 µM (inactive) and the GI50 (MDA-MB-435) was > 100 µM (inactive). The GI50 (HCT-116) was > 100 µM (inactive), the GI50 (Hs-578T) was > 100 µM (inactive) and the GI50 (SNB-75) was > 100 µM (inactive). For the same compound, the GI50 (SK-OV-3) was > 100 µM (inactive), the GI50 (KM12) was > 100 µM (inactive) and the GI50 (HT-29) was > 100 µM (inactive). The GI50 (SK-MEL-5) was > 100 µM (inactive), the GI50 (HL-60) was 27.4 µM (inactive) and the GI50 (SW-620) was > 100 µM (inactive). For the same compound, the GI50 (IGROV-1) was > 100 µM (inactive), the GI50 (CCRF-CEM) was > 100 µM (inactive) and the GI50 (NCI-H23) was > 100 µM (inactive). The GI50 (NCI/ADR-RES) was > 100 µM (inactive), the GI50 (DU-145) was > 100 µM (inactive) and the GI50 (UACC-257) was > 100 µM (inactive). The GI50 (HCT-15) was greater than 100 µM, the GI50 (SF-539) was > 100 µM (inactive) and the GI50 (T47D) was > 100 µM (inactive). The GI50 (CAKI-1) was > 100 µM (inactive), the GI50 (SNB-19) was > 100 µM (inactive) and the GI50 (SF-268) was > 100 µM (inactive). The GI50 (A549) was > 100 µM (inactive), the GI50 (HCC 2998) was > 100 µM (inactive) and the GI50 (OVCAR-4) was > 100 µM (inactive). The GI50 (NCI-H522) was > 100 µM (inactive), the GI50 (TK-10) was > 100 µM (inactive) and the GI50 (OVCAR-3) was > 100 µM (inactive). The GI50 (COLO 205) was > 100 µM (inactive).

In the case of `CCOC(=O)C(Cc1cn(C(C)=O)c2ccccc12)P(=O)(OCC)OCC` (stereo not drawn), the GI50 (MDA-MB-231) is reported as > 100 µM (inactive), the GI50 (MDA-N) is reported as > 100 µM (inactive) and the GI50 (NCI-H226) is reported as > 100 µM (inactive). The GI50 (HOP-62) was > 100 µM (inactive), the GI50 (HOP-92) was > 100 µM (inactive) and the GI50 (U-251) was > 100 µM (inactive). For the same compound, the GI50 (SR) was > 100 µM (inactive), the GI50 (OVCAR-8) was > 100 µM (inactive) and the GI50 (NCI-H460) was 55.1 µM (inactive). The GI50 (OVCAR-5) was > 100 µM (inactive), the GI50 (UO-31) was > 100 µM (inactive) and the GI50 (SK-MEL-2) was > 100 µM (inactive). For the same compound, the GI50 (RPMI-8226) was > 100 µM (inactive), the GI50 (PC-3) was 60.8 µM (inactive) and the GI50 (M14) was > 100 µM (inactive). The GI50 (SN12C) was > 100 µM (inactive), the GI50 (SF-295) was > 100 µM (inactive) and the GI50 (ACHN) was > 100 µM (inactive). The GI50 (SK-MEL-28) was > 100 µM (inactive), the GI50 (LOX IMVI) was > 100 µM (inactive) and the GI50 (MDA-MB-435) was > 10 µM (inactive). For the same compound, the GI50 (HCT-116) was > 100 µM (inactive), the GI50 (Hs-578T) was > 100 µM (inactive) and the GI50 (SNB-75) was > 100 µM (inactive). The GI50 (MOLT-4) was > 100 µM (inactive), the GI50 (SK-OV-3) was > 100 µM (inactive) and the GI50 (HT-29) was > 100 µM (inactive). The GI50 (SK-MEL-5) was > 100 µM (inactive), the GI50 (SW-620) was > 100 µM (inactive) and the GI50 (IGROV-1) was > 100 µM (inactive). For the same compound, the GI50 (NCI-H23) was > 100 µM (inactive), the GI50 (NCI/ADR-RES) was > 100 µM (inactive) and the GI50 (K562) was > 100 µM (inactive). For the same compound, the GI50 (DU-145) was > 100 µM (inactive), the GI50 (UACC-257) was > 100 µM (inactive) and the GI50 (HCT-15) was greater than 100 µM. The GI50 (T47D) was > 100 µM (inactive), the GI50 (CAKI-1) was > 100 µM (inactive) and the GI50 (SNB-19) was > 100 µM (inactive). For the same compound, the GI50 (A549) was > 100 µM (inactive), the GI50 (HCC 2998) was > 100 µM (inactive) and the GI50 (OVCAR-4) was > 100 µM (inactive). For the same compound, the GI50 (NCI-H522) was > 100 µM (inactive), the GI50 (TK-10) was > 100 µM (inactive) and the GI50 (OVCAR-3) was > 100 µM (inactive). The GI50 (COLO 205) was > 100 µM (inactive).

In the case of `C=C(CCOC)CCC1CCCCC(=C)[C@H]1OC(C)=O` (stereo partly drawn), the GI50 (786-0) is reported as > 100 µM (inactive), the GI50 (MDA-MB-231) is reported as > 100 µM (inactive) and the GI50 (MDA-N) is reported as > 100 µM (inactive). For the same compound, the GI50 (NCI-H226) was 97.3 µM (inactive), the GI50 (HOP-62) was > 100 µM (inactive) and the GI50 (HOP-92) was > 100 µM (inactive). For the same compound, the GI50 (U-251) was > 100 µM (inactive), the GI50 (SR) was 52.5 µM (inactive) and the GI50 (A498) was > 100 µM (inactive). For the same compound, the GI50 (MCF7) was > 100 µM (inactive), the GI50 (OVCAR-8) was > 100 µM (inactive) and the GI50 (NCI-H460) was > 100 µM (inactive). For the same compound, the GI50 (OVCAR-5) was > 100 µM (inactive), the GI50 (UO-31) was > 100 µM (inactive) and the GI50 (UACC-62) was > 100 µM (inactive). The GI50 (SK-MEL-2) was > 100 µM (inactive), the GI50 (RPMI-8226) was 51.1 µM (inactive) and the GI50 (PC-3) was > 100 µM (inactive). The GI50 (M14) was > 100 µM (inactive), the GI50 (SN12C) was > 100 µM (inactive) and the GI50 (SF-295) was > 100 µM (inactive). The GI50 (ACHN) was > 100 µM (inactive), the GI50 (EKVX) was > 100 µM (inactive) and the GI50 (SK-MEL-28) was > 100 µM (inactive). The GI50 (LOX IMVI) was > 100 µM (inactive), the GI50 (MDA-MB-435) was > 100 µM (inactive) and the GI50 (HCT-116) was > 100 µM (inactive). For the same compound, the GI50 (Hs-578T) was > 100 µM (inactive), the GI50 (SNB-75) was > 100 µM (inactive) and the GI50 (MOLT-4) was 59.7 µM (inactive). For the same compound, the GI50 (SK-OV-3) was > 100 µM (inactive), the GI50 (KM12) was > 100 µM (inactive) and the GI50 (HT-29) was > 100 µM (inactive). For the same compound, the GI50 (SK-MEL-5) was 63.2 µM (inactive), the GI50 (HL-60) was 50.7 µM (inactive) and the GI50 (SW-620) was > 100 µM (inactive). The GI50 (IGROV-1) was > 100 µM (inactive), the GI50 (CCRF-CEM) was > 100 µM (inactive) and the GI50 (NCI-H23) was 93.8 µM (inactive). The GI50 (NCI/ADR-RES) was 78.3 µM (inactive), the GI50 (K562) was > 100 µM (inactive) and the GI50 (DU-145) was > 100 µM (inactive). The GI50 (UACC-257) was > 100 µM (inactive), the GI50 (HCT-15) was greater than 100 µM and the GI50 (SF-539) was > 100 µM (inactive). For the same compound, the GI50 (T47D) was > 100 µM (inactive), the GI50 (CAKI-1) was > 100 µM (inactive) and the GI50 (SNB-19) was > 100 µM (inactive). The GI50 (SF-268) was > 100 µM (inactive), the GI50 (A549) was > 100 µM (inactive) and the GI50 (OVCAR-4) was > 100 µM (inactive). The GI50 (NCI-H522) was 41.8 µM (inactive), the GI50 (TK-10) was > 100 µM (inactive) and the GI50 (OVCAR-3) was > 100 µM (inactive). The GI50 (COLO 205) was > 100 µM (inactive).
